How the values were obtained:
Assay in all cases: Test E pre-/postemergence plant response
Type in all cases: in vivo
[1] = system: Russian thistle (Salsola kali); settings: Preemergence, scale 0 to 100
Summary of the method: (§1)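 Formulated in a non-phytotoxic solvent mixture containing surfactant, compound was applied to soil at planting or sprayed on emerged plants at the 1- to 4-leaf stage. Visual comparison with controls followed 14 to 21 days in the greenhouse; 0 = no effect, 100 = complete control.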

[2] = system: Virginia (V.) dayflower (Commelina virginica); settings: scale 0 to 100
Summary of the method: as §1

[3] = system: barnyardgrass (Echinochloa crus-galli); settings: scale 0 to 100
Summary of the method: as §1

[4] = system: broadleaf signalgrass (Brachiaria platyphylla); settings: scale 0 to 100
Summary of the method: as §1

[5] = system: common chickweed (Stellaria media); settings: scale 0 to 100
Summary of the method: as §1

[6] = system: common sowthistle (Sonchus oleraceous); settings: scale 0 to 100
Summary of the method: as §1

[7] = system: dallisgrass (Paspalum dilatatum); settings: scale 0 to 100
Summary of the method: as §1

kochia (Kochia scoparia) = settings: Preemergence, scale 0 to 100
Summary of the method: as §1

[8] = system: large crabgrass (Digitaria sanguinalis); settings: scale 0 to 100
Summary of the method: as §1

[9] = system: naked crabgrass (Digitaria nuda); settings: scale 0 to 100
Summary of the method: as §1

[10] = system: prickly sida (Sida spinosa); settings: scale 0 to 100
Summary of the method: as §1

[11] = system: tropical (T.) spiderwort (Commelina benghalensis); settings: scale 0 to 100
Summary of the method: as §1

SMILES: CCOC(=O)Oc1cnn(C)c(=O)c1-n1nc(-c2ccc(Cl)cc2)cc1C [Compound 53]
- Plant response rating, Thistle, Russian ([1]; 16 g ai/ha): 0
- Plant response rating, Thistle, Russian ([1]; 31 g ai/ha): 0
- Plant response rating, Thistle, Russian ([1]; 62 g ai/ha): 0
- Plant response rating, Dayflower, V. ([2]; 16 g ai/ha, Preemergence): 0
- Plant response rating, Dayflower, V. ([2]; 31 g ai/ha, Preemergence): 0
- Plant response rating, Dayflower, V. ([2]; 62 g ai/ha, Preemergence): 0
- Plant response rating, Dayflower, V. ([2]; Postemergence, 8 g ai/ha): 0
- Plant response rating, Dayflower, V. ([2]; Postemergence, 16 g ai/ha): 0
- Plant response rating, Dayflower, V. ([2]; Postemergence, 31 g ai/ha): 0
- Plant response rating, Dayflower, V. ([2]; Postemergence, 62 g ai/ha): 0
- Plant response rating, Barnyardgrass ([3]; 16 g ai/ha, Preemergence): 95
- Plant response rating, Barnyardgrass ([3]; 31 g ai/ha, Preemergence): 100
- Plant response rating, Barnyardgrass ([3]; 62 g ai/ha, Preemergence): 100
- Plant response rating, Barnyardgrass ([3]; Postemergence, 8 g ai/ha): 100
- Plant response rating, Barnyardgrass ([3]; Postemergence, 16 g ai/ha): 100
- Plant response rating, Barnyardgrass ([3]; Postemergence, 31 g ai/ha): 100
- Plant response rating, Barnyardgrass ([3]; Postemergence, 62 g ai/ha): 100
- Plant response rating, Signalgrass ([4]; 16 g ai/ha, Preemergence): 40
- Plant response rating, Signalgrass ([4]; 31 g ai/ha, Preemergence): 98
- Plant response rating, Signalgrass ([4]; 62 g ai/ha, Preemergence): 98
- Plant response rating, Signalgrass ([4]; Postemergence, 8 g ai/ha): 90
- Plant response rating, Signalgrass ([4]; Postemergence, 16 g ai/ha): 95
- Plant response rating, Signalgrass ([4]; Postemergence, 31 g ai/ha): 95
- Plant response rating, Signalgrass ([4]; Postemergence, 62 g ai/ha): 100
- Plant response rating, Chickweed ([5]; 62 g ai/ha, Preemergence): 0
- Plant response rating, Sowthistle ([6]; 16 g ai/ha, Preemergence): 0
- Plant response rating, Sowthistle ([6]; 31 g ai/ha, Preemergence): 0
- Plant response rating, Sowthistle ([6]; 62 g ai/ha, Preemergence): 0
- Plant response rating, Sowthistle ([6]; Postemergence, 8 g ai/ha): 0
- Plant response rating, Sowthistle ([6]; Postemergence, 16 g ai/ha): 0
- Plant response rating, Sowthistle ([6]; Postemergence, 31 g ai/ha): 0
- Plant response rating, Sowthistle ([6]; Postemergence, 62 g ai/ha): 0
- Plant response rating, Dallisgrass ([7]; 16 g ai/ha, Preemergence): 65
- Plant response rating, Dallisgrass ([7]; 31 g ai/ha, Preemergence): 80
- Plant response rating, Dallisgrass ([7]; 62 g ai/ha, Preemergence): 95
- Plant response rating, Dallisgrass ([7]; Postemergence, 8 g ai/ha): 0
- Plant response rating, Dallisgrass ([7]; Postemergence, 16 g ai/ha): 20
- Plant response rating, Dallisgrass ([7]; Postemergence, 31 g ai/ha): 30
- Plant response rating, Dallisgrass ([7]; Postemergence, 62 g ai/ha): 75
- Plant response rating, Kochia (kochia (Kochia scoparia); 16 g ai/ha): 0
- Plant response rating, Kochia (kochia (Kochia scoparia); 31 g ai/ha): 0
- Plant response rating, Crabgrass, Large ([8]; 16 g ai/ha, Preemergence): 40
- Plant response rating, Crabgrass, Large ([8]; 31 g ai/ha, Preemergence): 95
- Plant response rating, Crabgrass, Large ([8]; 62 g ai/ha, Preemergence): 100
- Plant response rating, Crabgrass, Large ([8]; Postemergence, 8 g ai/ha): 35
- Plant response rating, Crabgrass, Large ([8]; Postemergence, 16 g ai/ha): 95
- Plant response rating, Crabgrass, Large ([8]; Postemergence, 31 g ai/ha): 95
- Plant response rating, Crabgrass, Large ([8]; Postemergence, 62 g ai/ha): 100
- Plant response rating, Crabgrass, Naked ([9]; 16 g ai/ha, Preemergence): 80
- Plant response rating, Crabgrass, Naked ([9]; 31 g ai/ha, Preemergence): 100
- Plant response rating, Crabgrass, Naked ([9]; 62 g ai/ha, Preemergence): 100
- Plant response rating, Crabgrass, Naked ([9]; Postemergence, 8 g ai/ha): 30
- Plant response rating, Crabgrass, Naked ([9]; Postemergence, 16 g ai/ha): 80
- Plant response rating, Crabgrass, Naked ([9]; Postemergence, 31 g ai/ha): 98
- Plant response rating, Crabgrass, Naked ([9]; Postemergence, 62 g ai/ha): 100
- Plant response rating, Prickly Sida ([10]; 16 g ai/ha, Preemergence): 0
- Plant response rating, Prickly Sida ([10]; 31 g ai/ha, Preemergence): 0
- Plant response rating, Prickly Sida ([10]; 62 g ai/ha, Preemergence): 0
- Plant response rating, Prickly Sida ([10]; Postemergence, 8 g ai/ha): 0
- Plant response rating, Prickly Sida ([10]; Postemergence, 16 g ai/ha): 0
- Plant response rating, Prickly Sida ([10]; Postemergence, 31 g ai/ha): 0
- Plant response rating, Prickly Sida ([10]; Postemergence, 62 g ai/ha): 0

SMILES: CCc1cc(-c2ccc(Cl)cc2)nn1-c1c(O)cnn(C)c1=O [Compound 21]
- Plant response rating, Barnyardgrass ([3]; 8 g ai/ha, Preemergence): 95
- Plant response rating, Barnyardgrass ([3]; 16 g ai/ha, Preemergence): 100
- Plant response rating, Barnyardgrass ([3]; 31 g ai/ha, Preemergence): 100
- Plant response rating, Barnyardgrass ([3]; 62 g ai/ha, Preemergence): 100
- Plant response rating, Barnyardgrass ([3]; Postemergence, 8 g ai/ha): 100
- Plant response rating, Barnyardgrass ([3]; Postemergence, 16 g ai/ha): 100
- Plant response rating, Barnyardgrass ([3]; Postemergence, 31 g ai/ha): 100
- Plant response rating, Barnyardgrass ([3]; Postemergence, 62 g ai/ha): 100
- Plant response rating, Signalgrass ([4]; 16 g ai/ha, Preemergence): 98
- Plant response rating, Signalgrass ([4]; 31 g ai/ha, Preemergence): 100
- Plant response rating, Signalgrass ([4]; 62 g ai/ha, Preemergence): 100
- Plant response rating, Signalgrass ([4]; Postemergence, 8 g ai/ha): 80
- Plant response rating, Signalgrass ([4]; Postemergence, 16 g ai/ha): 90
- Plant response rating, Signalgrass ([4]; Postemergence, 31 g ai/ha): 100
- Plant response rating, Signalgrass ([4]; Postemergence, 62 g ai/ha): 100
- Plant response rating, Chickweed ([5]; Postemergence, 31 g ai/ha): 0
- Plant response rating, Dallisgrass ([7]; 8 g ai/ha, Preemergence): 80
- Plant response rating, Dallisgrass ([7]; 16 g ai/ha, Preemergence): 100
- Plant response rating, Dallisgrass ([7]; 31 g ai/ha, Preemergence): 100
- Plant response rating, Dallisgrass ([7]; 62 g ai/ha, Preemergence): 100
- Plant response rating, Dallisgrass ([7]; Postemergence, 8 g ai/ha): 75
- Plant response rating, Dallisgrass ([7]; Postemergence, 16 g ai/ha): 80
- Plant response rating, Dallisgrass ([7]; Postemergence, 31 g ai/ha): 85
- Plant response rating, Dallisgrass ([7]; Postemergence, 62 g ai/ha): 98
- Plant response rating, Crabgrass, Large ([8]; 8 g ai/ha, Preemergence): 65
- Plant response rating, Crabgrass, Large ([8]; 16 g ai/ha, Preemergence): 100
- Plant response rating, Crabgrass, Large ([8]; 31 g ai/ha, Preemergence): 100
- Plant response rating, Crabgrass, Large ([8]; 62 g ai/ha, Preemergence): 100
- Plant response rating, Crabgrass, Large ([8]; Postemergence, 8 g ai/ha): 80
- Plant response rating, Crabgrass, Large ([8]; Postemergence, 16 g ai/ha): 90
- Plant response rating, Crabgrass, Large ([8]; Postemergence, 31 g ai/ha): 95
- Plant response rating, Crabgrass, Large ([8]; Postemergence, 62 g ai/ha): 98
- Plant response rating, Crabgrass, Naked ([9]; 16 g ai/ha, Preemergence): 95
- Plant response rating, Crabgrass, Naked ([9]; 31 g ai/ha, Preemergence): 100
- Plant response rating, Crabgrass, Naked ([9]; 62 g ai/ha, Preemergence): 100
- Plant response rating, Crabgrass, Naked ([9]; Postemergence, 8 g ai/ha): 80
- Plant response rating, Crabgrass, Naked ([9]; Postemergence, 16 g ai/ha): 90
- Plant response rating, Crabgrass, Naked ([9]; Postemergence, 31 g ai/ha): 98
- Plant response rating, Crabgrass, Naked ([9]; Postemergence, 62 g ai/ha): 100
- Plant response rating, Spiderwort, T. ([11]; 16 g ai/ha, Preemergence): 0
- Plant response rating, Spiderwort, T. ([11]; 31 g ai/ha, Preemergence): 0
- Plant response rating, Spiderwort, T. ([11]; 62 g ai/ha, Preemergence): 0
- Plant response rating, Spiderwort, T. ([11]; Postemergence, 8 g ai/ha): 0
- Plant response rating, Spiderwort, T. ([11]; Postemergence, 16 g ai/ha): 0
- Plant response rating, Spiderwort, T. ([11]; Postemergence, 31 g ai/ha): 0
- Plant response rating, Spiderwort, T. ([11]; Postemergence, 62 g ai/ha): 0

Source: patent US20100267561A1, “HERBICIDAL PYRIDAZINONE DERIVATIVES” (priority 2007, published 2010)
